These results are taken from US20230192715A1 (priority 2020, published 2023).

Molecules are shown by their SMILES.

The nature of assay [1]: Double-blind placebo controlled randomized clinical trial in major depressive disorder. It is filed as in vivo, human.
Another assay concerns PD95, GluR1. Conditions: in vivo; cited from earlier work.
Another assay deals with mRNA for NMDAR1. The note with it: in vitro; cited from earlier work.
Another assay concerns BDNF. Conditions: humans; plasma, healthy volunteers, 14-day Phase 1 study; cited from earlier work.
In a further assay the test system is serotonin receptors. The note with it: Rickli et al, 2018; cited from earlier work.

On to `CCC(=O)C(C[C@H](C)N(C)C)(c1ccccc1)c1ccccc1` [Dextromethadone], for which the persistence of remission entry in assay [1] (after discontinuation of treatment) was “persisted for at least seven days after discontinuation of treatment”. In assay [1] (within the first week of treatment, 5% in patients randomized to placebo), the “patients with remission of disease (MADRS<10)” value is recorded as “over 30%”. In addition, the “levels of PD95, GluR1” value with PD95, GluR1 is “increases levels of PD95, GluR1”. Besides, the “mRNA for NMDAR1” value with mRNA for NMDAR1 is recorded as “increases mRNA for NMDAR1”. The BDNF result with BDNF was “increases BDNF”.

For `CN1CC[C@@]23c4c5ccc(O)c4O[C@@H]2[C@H](O)C=C[C@@H]3[C@@H]1C5` [Levomorphine], the “actions at serotonin receptors” value in the assay with serotonin receptors is recorded as “no actions at serotonin receptors”.
